“Also recorded” adds a separate entry of the source. Where no end group is shown, it is not given here.
Tests used:
[1] = system: INS-1E cells; assay: Insulin secretion by novel peptide analogues (Example 21, FIG. 16); assay type: cell-based, rat; settings: 100 nM peptide, high glucose buffer, vs un-supplemented high glucose buffer
Protocol: Materials and methods: Rat INS-1 β-cells (passages 60-70) were cultured at 37° C. and 5% CO2 in cRPMI media (RPMI 1640 supplemented with 10% fetal bovine serum, 50 IU/mL penicillin, 50 mg/L streptomycin, 10 mM HEPES, 2 mM L-glutamine, 1 mM sodium pyruvate, and 50 μM beta-mercaptoethanol) unless otherwise stated. INS-1 cells were seeded in 96-well plates (2×10^3 cells/well) in cRPMI medium and following overnight incubation, the cells were washed in PBS before pre-incubation for 120 min at 37° C. in Krebs-Ringer bicarbonate buffer, pH 7.4, supplemented with 10 mM HEPES, 0.1% bovine serum albumin and 2.8 mM glucose. Following pre-incubation, the buffer was exchanged with fresh Krebs-Ringer buffer as described above and supplemented with specific glucose concentrations and peptides for the individual experiments as described below. Immediately after 60 minutes incubation at 37° C., an aliquot of the buffer was removed and frozen for subsequent insulin ELIZA assay.
In order to correct for the variance between experiments, all values were normalized to, and expressed as percentage of the average value of the high glucose control in the individual experiments. The analogues were subsequently ranked according to performance (FIG. 16).

[2] = system: mouse pancreatic islets; assay: Insulin secretion from isolated mouse pancreatic islets (Examples 5 and 7); assay type: cell-based; settings: 60 min
Protocol: Mouse pancreatic islets were isolated from 8-week old C57BL/6J male mice (Taconic). Mice were sacrificed by an overdose of isoflurane and cervical dislocation. 3 ml of 0.9 U/ml collagenase P was injected into the pancreatic duct to inflate the pancreas. The Pancreas was then removed and collagen digested for 19 min at 37° C. The samples Were vigorously shaken to disrupt the tissue. The digest was transferred into ice cold Hank's Balanced Salt Solution (HBSS) with Ca^2+ and Mg^2+. The suspension was allowed to sit for 10 min to allow the islet to sink, and the islets were washed in fresh HBSS four times. The islets were then hand-picked and sorted according to size. Islets (n=3 per well in a 96 well plate) were pre-incubated in KRB buffer during 10 min 37° C., pH 7.4, supplemented with 10 mM HEPES, 0.1% bovine serum albumin. After pre-incubation, the buffer was changed and islets were incubated at different test conditions in new KRB buffer with 0.1% bovine serum albumin (non-treated ctrl, FOL-005 peptide, or GLP-1) for 60 min at 37° C. Immediately after incubation, an aliquot of the buffer was removed and frozen for subsequent assay of insulin.
Mouse pancreatic islets were isolated from 8-week old C57BL/6J male mice as described under example 5. The islets were then hand-picked and sorted according to size. Islets (n=5 per well in a 96 well plate) were pre-incubated in 200 μl KRB buffer during 10 min 37° C., pH 7.4, supplemented with 10 mM HEPES, 0.1% bovine serum albumin. Following pre-incubation, the buffer was changed and islets were incubated in different test conditions in new KRB buffer with 0.1% bovine serum albumin (non-treated ctrl, FOL-014 peptide, and GLP-1) for 60 min at 37° C. Immediately after incubation, an aliquot of the buffer was removed and frozen for subsequent assay of insulin.

[3] = system: isolated mouse islets; assay: Insulin and glucagon secretion from isolated mouse islets (Example 12); assay type: cell-based; settings: 100 nM
Protocol: Twelve-week-old male C57/bl6 mice were euthanized with isoflurane and cervical dislocation. After clamping the hepatic ducts, 3 ml of 0.9 U/ml collagenase P was injected into the bile duct to inflate the pancreas. The pancreas was then removed and digested for 19 min at 37° C. The samples were vigorously shaken to disrupt the tissue. The digest was quickly transferred into ice cold Hank's Balanced Salts Solution with Ca^2+ and Mg^2+. The suspension was allowed to sit for 8 min to allow the islet to sink, and the islets were washed in the same manner four times. The islets were then handpicked and sorted according to size.
Freshly isolated islets were seeded in groups of 5 in a 96-well plate and preincubated for 1 h at 37° C. in a Krebs-Ringer bicarbonate buffer (pH 7.4). The islets were incubated for 1 h at 37° C. in Krebs-Ringer buffered solution supplemented with 0.6 or 6 μM FOL-014 or 100 nM GLP-1 or left unsupplemented for control. Immediately after incubation, the medium was removed for assays of insulin and glucagon using Mercodia's ELISA kits. The effect of FOL-014 on insulin (FIGS. 8A and B) and glucagon (FIGS. 8C and D) secretion from isolated mouse islets was measured in the presence of low glucose (2.8 mM; FIGS. 8A and C) or high glucose (16.7 mM; FIGS. 8B and D) concentrations.

[4] = system: INS-1 cells; assay: Proliferation of INS-1 cells ([methyl-3H] thymidine incorporation); assay type: cell-based, rat
Protocol: To investigate if FOL-005 and FOL-014 could induce proliferation of β-cells we used INS-1 cells. Rat INS-1 cells were seeded in 96-well plates in RPMI medium with supplement and after 2 hours the medium was changed to RPMI without supplement. During the proliferation experiment the cells were incubated at different test conditions (FOL-005, FOL-014, coated or in solution, 48 h incubation) and during the last 20 hours of culture period the cells were pulsed with 1 μ Ci/well of [methyl-3H] thymidine. The cells were then harvested onto glass fiber filters using a FilterMate harvester. The filters were air dried, and the bound radioactivity was measured using a liquid scintillation counter. To study whether FOL-005 influenced β-cell proliferation, INS-1 cells were treated with increasing amounts of soluble FOL-005 (0.06-6 μM) during 48 hours and proliferation was measured with radiolabeled thymidine incorporation into newly synthesized DNA.

[5] = system: INS-1 cells; assay: Glucotoxicity-induced apoptosis of INS-1 cells (Annexin V staining, caspase-3 activity); assay type: cell-based, rat; settings: 20 mM glucose, 48 h, vs 20 mM glucose alone
Protocol: Since glucotoxicity in pancreatic β-cells is a well-established process in type 2 diabetes we next investigated the protective effects of FOL-005 on β-cells during glucotoxic conditions. First we confirmed that 20 mM glucose induced cell apoptosis in INS cells after 48 h of exposure. High glucose (20 mM) containing RPMI medium induced more Annexin V positive cells and more caspase-3 activity in INS cells compared to cells incubated with medium containing 5 mM glucose (FIG. 2A-B). […] The rate of apoptosis in INS-1 cells was measured with either Caspase-3 Assay Kit or stained with Annexin V Apoptosis Detection Kit with 7-AAD. Caspase-3 activity was measured with fluorescence at an excitation wavelength of 380 nm and an emission wavelength of 440 nm. Caspase-3 activity was then normalized to protein concentration in each well. Measurements of
Annexin V stained cells were performed using a CyAn ADP flow cytometer and analyzed with Summit V4.3 software.

[6] = system: INS-1 β-cells; assay: Insulin secretion from INS-1 cells (Examples 4 and 6); assay type: cell-based, rat; settings: 6 μM peptide
Protocol: To investigate the stimulatory effect of FOL-005 on insulin secretion, INS-1 β-cells were used in the following experiments. Cells were seeded overnight in cRPMI and then washed with PBS before pre-incubation for 60 min at 37° C. in Krebs-Ringer bicarbonate buffer (KRB), pH 7.4, supplemented with 10 mM HEPES, 0.1% bovine serum albumin. After pre-incubation, the buffer was changed and the INS-1 cells were incubated at different test conditions (0 mM, 5 mM or 20 mM glucose) and stimulated with peptide FOL-005 or FOL-015 (SEQ ID NO: 158) or left untreated during 60 min at 37° C. Immediately after incubation, an aliquot of the buffer was removed and frozen for subsequent assay of insulin with an insulin radioimmunoassay kit.
INS-1 β-cells were used to investigate the stimulatory effect of FOL-014 on insulin secretion. Cells were seeded overnight and then washed with PBS before pre-incubation for 60 min at 37° C. in Krebs-Ringer bicarbonate buffer (KRB), pH 7.4, supplemented with 10 mM HEPES, 0.1% bovine serum albumin. After pre-incubation, the buffer was changed and the INS-1 cells were incubated in new KRB buffer supplemented with 10 mM HEPES, 0.1% bovine serum albumin and stimulated with peptide FOL-014 or left untreated during 60 min at 37° C. Immediately after incubation, an aliquot of the buffer was removed and frozen for subsequent assay of insulin.

With “DSIELSYGIK (MISC_FEATURE - peptide) [FOL-059]” the insulin secretion [1] was “increased the insulin secretion as compared with cells treated with an un-supplemented high glucose buffer”.

“EIDSIELSYGIK (MISC_FEATURE - peptide) [FOL-057]” was tested, and the insulin secretion [1] was “increased the insulin secretion as compared with cells treated with an un-supplemented high glucose buffer”.

In the case of “GLP-1: native glucagon-like peptide-1, metabolic hormone that stimulates insulin secretion; comparator (HAEGTFTSDVSSYLEGQAAKEFIAWLVKGR; ends and bridges not checked; UniProt P01275 98-127, looked up) [reference compound]”, the insulin secretion ([2]; Example 5, 100 nM, vs unstimulated control islets) was “secreted more insulin compared to unstimulated control islets”, the insulin secretion ([2]; Example 7, 100 nM) was “did not affect insulin secretion; also recorded: had no effect on insulin secretion” and the glucagon secretion ([3]; high glucose (16.7 mM)) was “efficiently reduced glucagon secretion”. The insulin secretion ([3]; high glucose (16.7 mM)) was “significantly increased insulin secretion”, the glucagon secretion ([3]; low glucose (2.8 mM)) was “failed to inhibit glucagon secretion in low glucose conditions” and the insulin secretion ([3]; low glucose (2.8 mM)) was “enhanced insulin secretion also in low glucose samples”.

“IDSIELSYGIK (MISC_FEATURE - peptide) [FOL-058]” was tested, and the insulin secretion [1] was “increased the insulin secretion as compared with cells treated with an un-supplemented high glucose buffer”.

With “VDTYDGDISVVYGLR (MISC_FEATURE - peptide, FOL-005)” the “proliferation of INS-1 cells” value ([4]; peptide in solution, 0.06-6 μM, 48 hours) was “stimulated INS-1 cell proliferation; also recorded: induced increasing proliferation of INS-1 cells”, the “proliferation of INS-1 cells” value ([4]; wells coated with peptide and blocked with BSA, vs BSA coated control wells) was “stimulated proliferation compared to control; also recorded: induced more proliferation of β-cells compared to only BSA coated control” and the “apoptotic cells (Annexin V positive)” value [5] was “decreased cell apoptosis; also recorded: reduced the level of apoptotic cells compared to 20 mM glucose alone”. For the same substance, the caspase-3 activity [5] was “decreased cell apoptosis; also recorded: diminished the rate of glucotoxicity-induced caspse-3 activity”, the “insulin secretion at 20 mM glucose compared with 5 mM glucose” value [6] was “responded with more insulin secretion compared to FOL-005 stimulated cells incubated with 5 mM glucose” and the insulin release ([6]; 5 mM or 20 mM glucose) was “responded with insulin secretion; also recorded: stimulated insulin release”. The insulin release ([6]; non glucose containing media, 60 min, vs unstimulated control and FOL-015) was “secreted more insulin compared to unstimulated control cells or to cells stimulated with the FOL-015 control peptide; also recorded: increased” and the insulin secretion ([2]; Example 5, 6 μM, vs unstimulated control islets) was “secreted more insulin compared to unstimulated control islets”.
